Each block holds one compound with its values, some of them ahead of it.
What was measured:
[1] = system: primary mouse hepatocytes; assay: In vitro glucose production, VPC and lipolysis in isolated hepatocytes; format: cell-based; conditions: for glucagon-stimulated VPC flux / glucagon-stimulated glucose production: WT hepatocytes, 100 nM glucagon, 8 hr
Protocol: For in vitro glucose production and lipolysis studies, primary mouse hepatocytes were isolated by the Yale Liver Center. Following removal of cell debris by Percoll density gradient centrifugation, cells were plated on 6-well collagen-I coated dishes (4.0×10^5 cells/well) in 2 ml recovery media (DMEM High Glucose containing 10% FBS, 2% penicillin-streptomycin, 100 nM dexamethasone, 1 nM insulin, and 10 mM HEPES). After incubation for 6 hr at 37° C. and 5% CO2, the attached cells were washed once in 1×PBS and then incubated overnight in 2 ml Low Glucose Culture Media (DMEM Low Glucose supplemented with 10% FBS, 2% penicillin-streptomycin and 10 mM HEPES for glucose production studies) or Serum Free Low Glucose Culture Media (DMEM Low Glucose supplemented with 0.5% fatty acid free BSA, 2% penicillin-streptomycin and 10 mM HEPES for lipolysis assays). […] After incubation for 8 hr at 37° C. and 5% CO2, cell culture media was collected for analysis of glucose, NEFA, and glycerol concentrations as described above. VPC was determined by measuring VPC/VEGP by PINTA as described above using 300 μL of the collected media, and multiplying this ratio by the measured glucose production rate. In a subset of studies, cells were incubated for 8 hr during the glucose production assay in media containing one of the following agents (all dissolved in 0.5% DMSO), or 0.5% DMSO vehicle: 20 μM ET-18-OCH3 (Santa Cruz), 100 μM U-73122 (Sigma), 30 nM thapsigargin (Sigma), 100 nM vasopressin (Sigma) 50 μM 2-APB (R&D Systems), 70 μM caffeine (Sigma), 1 mM malic enzyme inhibitor hydroxymalonate (Sigma). To inhibit PKA, hepatocytes were incubated in H-89 […] hydrate (Sigma, 25 μM) dissolved in media, or media lacking H-89 as a control. In the insulin treatment studies, hepatocytes were incubated in 1 nM insulin with 5% BSA and glucose production media for the duration of the glucose production assay. In the in vitro atglistatin study, hepatocytes were incubated in 10 μM atglistatin in 0.1% EtOH, or 0.1% EtOH vehicle. All values were normalized to total protein content determined from whole-cell lysates by a BCA protein assay (Thermo Fisher Scientific) according to the manufacturer's instructions and expressed as fold change verses vehicle-treated cells.

[2] = biological target: T1, ATGL (Rattus norvegicus, UniProt P0C548); assay: ATGL inhibitor atglistatin in 0, 6, 16 and 48 hr fasted rats; format: in vivo
T1 construct: from tissue; host or cells: live rat, in vivo (intraperitoneal dosing)
T1 sequence (P0C548 1-478): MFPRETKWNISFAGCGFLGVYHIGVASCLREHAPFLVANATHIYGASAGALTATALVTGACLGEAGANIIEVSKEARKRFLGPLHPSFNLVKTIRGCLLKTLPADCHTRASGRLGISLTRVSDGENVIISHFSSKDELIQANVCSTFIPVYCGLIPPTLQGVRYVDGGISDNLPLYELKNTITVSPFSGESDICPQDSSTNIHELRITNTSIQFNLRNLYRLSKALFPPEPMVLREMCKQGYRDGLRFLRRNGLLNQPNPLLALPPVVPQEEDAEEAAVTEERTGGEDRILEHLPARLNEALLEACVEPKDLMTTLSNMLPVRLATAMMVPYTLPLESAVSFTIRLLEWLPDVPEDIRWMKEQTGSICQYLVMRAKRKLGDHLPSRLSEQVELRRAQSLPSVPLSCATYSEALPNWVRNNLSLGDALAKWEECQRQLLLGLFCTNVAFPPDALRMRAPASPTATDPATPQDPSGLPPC
Protocol: Liver and muscle glycogen concentrations were assessed using amyloglucosidase digestion. Liver TAG content was measured using the method of Bligh and Dyer (Bligh and Dyer, Can. J. Biochem. Physiol. 37, 911-917, 1959): lipids were extracted from livers using 2:1 chloroform:methanol, and the Sekisui triglyceride-SL reagent was used to measure triglyceride content spectrophotometrically. Liver and muscle DAG content and liver acetyl- and malonyl-CoA concentrations were measured by LC-MS/MS as described by Yu and Perry (Yu, et al. J. Biol. Chem. 2002, 277, 50230-50236; Perry, et al., J. Clin. Invest. 2017, 127, 657-669). […] The samples were homogenized in […] ice-cold methanol using a TissueLyser and filtered through a Nanosep filter. LC-MS/MS (AbSCIEX 6500 QTRAP with a Shimadzu ultrafast liquid chromatography system, negative ion mode) was again used to monitor the relevant ion pairs: succinate and [^13C4]succinate, 117/99 and 121/103, respectively; malate and [^13C4]malate, 133/115 and 137/119, respectively; and citrate and [13C6]citrate, 191/173 and 197/179, respectively. […] Hepatic PKCε translocation, gluconeogenic enzyme protein expression, ApoB (antibody from Meridian Life Science, Memphis, Tenn.), and PGC1α (antibody from Santa Cruz Biotechnology, Dallas, Tex.) protein expression were assessed by western blot. Expression of each of these proteins was normalized to GAPDH.

[3] = biological target: glucocorticoid receptor (Rattus norvegicus, UniProt P06536)
Protocol: 8, 16, and 48 hr fasted rats were injected with a small molecule inhibitor of glycogen phosphorylase, 1-(3-(3-(2-Chloro-4,5-difluorobenzoyl) ureido)-4-methoxyphenyl)-3-methylurea (Sigma #361515; 5 mg/kg IV) and a tracer infusion of [2,3,3,3-^2H4]alanine ([…]prime for 5 min and […] continuous) and [3-^3H]glucose (0.3 μCi/min prime for 5 min and 0.3 μCi/min continuous) as well as [^13C4] β-hydroxybutyrate, [1,1,2,3,3-^2H5]glycerol, and [^13C16]palmitate at the rates listed in Table 9, for 120 min. Blood samples were obtained before (time zero) and 120 min after treatment with the glycogen phosphorylase inhibitor for measurement of turnover rates and plasma hormone/substrate concentrations. Hepatic acetyl-CoA content was altered by treatment with a CPT-1 inhibitor (etomoxir, 8 mg/kg) or an ATGL inhibitor (atglistatin, […]) in 0, 6, 16, and 48 hr fasted rats. Both agents were solubilized by suspending the drug in 4% ethanol/96% normal saline, heating to 60° C., and sonicating, and were cooled to room temperature before they were injected intraperitoneally. […] In these animals plasma glucose concentrations were measured every 15 minutes and a variable infusion of 20% glucose (Pfizer Hospira, Lake Forest, Ill.) was used to maintain plasma glucose concentrations ˜3.6-3.7 mM. The physiologic role of glucocorticoids was assessed in 6 and 48 hr fasted rats by treatment with a glucocorticoid receptor antagonist, mifepristone. Following a 2 hr tracer infusion at the rates described above to assess fatty acid, glycerol, glucose, and β-hydroxybutyrate turnover, rats were injected with mifepristone (40 mg/kg) IV. The tracer infusion was continued and the tracer of each of the above substrates was again measured 2 hr after treatment with mifepristone.
All whole-body substrate turnover rates were calculated using the equation Turnover=([Tracer APE/Plasma APE]−1)*Infusion rate, where APE designates the atom percent enrichment measured by mass spectrometry as described below (Biochemical Analysis). All chemicals used for flux analysis were obtained from SIGMA. Turnover of glucose, glycerol, and β-hydroxybutyrate were determined by gas chromatography-mass spectrometry (GC-MS). Briefly, both glucose and glycerol were deprotonized with 5 volumes of methanol, derivitized with 3 volumes of 1:1 acetic anhydride:pyridine, heated to 65° C. for 20 min, and 1 volume of methanol was added, then GC-MS was used in CI mode to measure glucose enrichment and EI mode to measure glycerol enrichment, with turnover calculated using the equation above. β-Hydroxybutyrate was deprotonized with 5 volumes of methanol and derivitized with 3 volumes of n-butanol 4N HCl, after which the samples were heated to 65° C. for 60 min, evaporated under N2 gas, and re-suspended in […] of trifluoroacetic acid:methylene chloride (1:7). Fatty acid turnover was measured by determining the plasma palmitate enrichment by GC-MS. Samples were prepared for measurements of palmitate enrichment by evaporating […] plasma, dissolving in […] 1:1 chloroform:methanol and derivitizing with […] boron trifluoride/methanol, then heating to 100° C. for 5 min, adding 2 mL pentane and 1 mL water, and centrifuging at low speed for 5 min. […] Alanine turnover was determined in rats infused with [2,3,3,3-^2H4]alanine by preparing samples to measure alanine enrichment by GC/MS (CI mode) using the same protocol as was employed to measure β-hydroxybutyrate enrichment.

[4] = system: primary hepatocytes (cytosolic and mitochondrial calcium); assay: Ca2+ imaging in isolated hepatocytes; format: cell-based, mouse
Protocol: Primary hepatocytes were isolated by the Yale Liver Center from wild-type and InsP3R-I KO mice and plated on glass coverslips coated with Rat Collagen Type I. Cells were loaded with the ratiometric cytosolic Ca^2+ indicator dye, Fura-2 AM (Thermo Fisher Scientific), or the mitochondrial matrix-targeted Ca^2+ indicator, Rhod-2 AM (Thermo Fisher Scientific) according to manufacturer's instructions. Ca^2+ imaging experiments were performed in 4-(2-hydroxyethyl)-1-piperazine ethanesulfonic acid (HEPES)-buffered balanced salt solution (25 mM HEPES, 121 mM NaCl, 4.7 mM KCl, 1.2 mM MgSO4, 1.2 mM KPO4, 5 mM NaHCO3, 2.0 mM CaCl2, 10 mM Glucose, pH 7.4) with or without the PKA inhibitor H-89 (25 μM) two to five hr following initial plating. Coverslips were transferred to a custom-built perfusion chamber on the stage of an inverted microscope connected to a RedShirtImaging camera (Olympus Life Science, Waltham, Mass.). […] For cytoplasmic calcium readings, changes in fluorescence (F, λ=340) were normalized by the initial fluorescence (F0, λ=380) and were expressed as F/F0. […] Individual cell responses were normalized to their respective baseline Rhod-2 AM fluorescence values, and changes were expressed as Normalized Δ Fluorescence.

[5] = system: hepatic gluconeogenesis and mitochondrial oxidation (VPC, VCS); assay: Alanine replacement in 48 hr fasted rats; format: in vivo, rat
Protocol: Hepatic fluxes (whole-body glucose turnover, VPC and VCS), liver TCA cycle intermediate concentrations, and plasma metabolites and hormones were measured as described below (Flux Measurements). […] Liver and muscle glycogen concentrations were assessed using amyloglucosidase digestion. Liver TAG content was measured using the method of Bligh and Dyer (Bligh and Dyer, Can. J. Biochem. Physiol. 37, 911-917, 1959): lipids were extracted from livers using 2:1 chloroform:methanol, and the Sekisui triglyceride-SL reagent was used to measure triglyceride content spectrophotometrically. Liver and muscle DAG content and liver acetyl- and malonyl-CoA concentrations were measured by LC-MS/MS as described by Yu and Perry (Yu, et al. J. Biol. Chem. 2002, 277, 50230-50236; Perry, et al., J. Clin. Invest. 2017, 127, 657-669). […] The samples were homogenized in […] ice-cold methanol using a TissueLyser and filtered through a Nanosep filter. LC-MS/MS (AbSCIEX 6500 QTRAP with a Shimadzu ultrafast liquid chromatography system, negative ion mode) was again used to monitor the relevant ion pairs: succinate and [^13C4]succinate, 117/99 and 121/103, respectively; malate and [^13C4]malate, 133/115 and 137/119, respectively; and citrate and [13C6]citrate, 191/173 and 197/179, respectively. […] Hepatic PKCε translocation, gluconeogenic enzyme protein expression, ApoB (antibody from Meridian Life Science, Memphis, Tenn.), and PGC1α (antibody from Santa Cruz Biotechnology, Dallas, Tex.) protein expression were assessed by western blot. Expression of each of these proteins was normalized to GAPDH.

[6] = 48-hr fasted rats, 40 mg/kg IV, 2 hr
[7] = hepatocytes, 100 nM vasopressin

Sequence of glucocorticoid receptor (P06536 whole entry, the tested form may be a part): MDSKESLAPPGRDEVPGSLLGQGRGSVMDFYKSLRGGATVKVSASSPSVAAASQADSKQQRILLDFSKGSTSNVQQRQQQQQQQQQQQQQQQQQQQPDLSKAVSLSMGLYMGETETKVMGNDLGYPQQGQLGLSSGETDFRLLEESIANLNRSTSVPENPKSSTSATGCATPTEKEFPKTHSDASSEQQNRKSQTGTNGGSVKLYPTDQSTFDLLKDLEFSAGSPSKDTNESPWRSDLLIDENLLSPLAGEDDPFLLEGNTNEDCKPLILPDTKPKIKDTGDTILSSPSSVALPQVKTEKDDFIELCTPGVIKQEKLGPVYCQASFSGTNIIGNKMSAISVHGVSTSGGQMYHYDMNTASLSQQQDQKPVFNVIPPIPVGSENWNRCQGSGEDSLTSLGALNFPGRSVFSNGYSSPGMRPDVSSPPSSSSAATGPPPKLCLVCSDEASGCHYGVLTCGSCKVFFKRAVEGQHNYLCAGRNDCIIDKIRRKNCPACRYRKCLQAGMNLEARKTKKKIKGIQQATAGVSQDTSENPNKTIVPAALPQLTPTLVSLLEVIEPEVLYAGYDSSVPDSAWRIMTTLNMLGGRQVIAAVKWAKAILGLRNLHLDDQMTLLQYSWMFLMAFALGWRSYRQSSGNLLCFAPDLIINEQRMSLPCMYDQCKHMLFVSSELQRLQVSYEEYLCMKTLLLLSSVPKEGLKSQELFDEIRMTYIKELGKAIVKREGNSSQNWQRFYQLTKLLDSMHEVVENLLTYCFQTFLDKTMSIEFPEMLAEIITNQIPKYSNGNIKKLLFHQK

plasma corticosterone concentration ([2]; 16- and 48-hr fasted rats): increases
plasma glucose concentrations ([2]; 16- and 48-hr fasted rats): decreased
plasma leptin ([2]; 16- and 48-hr fasted rats): reductions
hepatic acetyl-CoA content, hepatic gluconeogenesis, and plasma glucose and insulin concentrations ([2]; 16- to 48-hr fasted rats): suppressed
WAT lipolysis ([2]; 48-hr fasted rats): suppression
hepatic acetyl-CoA content ([2]; 48-hr fasted rats): suppression
plasma lactate, epinephrine, and norepinephrine concentrations and hepatic malonyl-CoA content ([2]; fasted rats): unchanged
SMILES: CN(C)C(=O)Nc1cccc(-c2ccc(N(C)C)cc2)c1 [atglistatin]
glucagon-stimulated VPC flux [1]: no effect
glucagon-stimulated glucose production [1]: no effect

reduction in plasma leptin concentrations ([3]; 48-hr fasted rats): 60%
WAT lipolysis [3, 6]: decreased
ketogenesis [3, 6]: decreased
plasma glucose concentrations [3, 6]: decreased
whole-body glucose turnover [3, 6]: decreased
WAT lipolysis, whole body glucose turnover, or plasma glucose or insulin concentrations ([3]; recently fed rats (6 hr)): no impact
SMILES: CC#C[C@]1(O)CC[C@H]2[C@@H]3CCC4=CC(=O)CCC4=C3[C@@H](c3ccc(N(C)C)cc3)C[C@@]21C [mifepristone]

SMILES: O=S(=O)(NCCNC/C=C/c1ccc(Br)cc1)c1cccc2cnccc12 [H-89, H-89 dichloroacetate hydrate]
glucagon-stimulated VPC flux [1]: abrogated
glucagon-stimulated glucose production [1]: abrogated
effect of glucagon to stimulate intrahepatic lipolysis ([1]; isolated hepatocytes): abrogated
calcium response to glucagon ([4]; WT hepatocytes, H-89 25 μM): abrogated

SMILES: NC(=O)CC[C@@H]1NC(=O)[C@H](Cc2ccccc2)NC(=O)[C@H](Cc2ccc(O)cc2)NC(=O)[C@@H](N)CSSC[C@@H](C(=O)N2CCC[C@H]2C(=O)N[C@@H](CCCN=C(N)N)C(=O)NCC(N)=O)NC(=O)[C@H](CC(N)=O)NC1=O [vasopressin]
VPC (effect of glucagon) [1, 7]: recapitulated
glucose production (effect of glucagon) [1, 7]: recapitulated
intrahepatic lipolysis (effect of glucagon) ([1]; hepatocytes, vasopressin): recapitulated
mitochondrial and cytosolic calcium signaling ([4]; isolated WT hepatocytes (not InsP3R-I KO), 100 nM glucagon or 50 nM vasopressin): almost identical increase

SMILES: C[C@H](N)C(=O)O [alanine]
plasma glucose, insulin, and lactate concentrations ([5]; alanine 45 mmol/(kg-min) 2 hr): increased
endogenous glucose production ([5]; alanine infusion): increased
increase in plasma leptin concentrations ([5]; alanine infusion): 3 fold
liver tricarboxylic acid cycle intermediate concentrations ([5]; alanine infusion): increased
plasma glucagon ([5]; alanine infusion): independent of any change
pyruvate carboxylase flux (VPC) ([5]; alanine infusion): increased
rates of hepatic mitochondrial oxidation (VCS) ([5]; alanine infusion): increased

From patent US11484608B2, “Non-invasive assessment of hepatic mitochondrial metabolism by positional isotopomer NMR tracer analysis (PINTA)” (YALE UNIVERSITY, priority 2017, dated 2022)
